{"source": "patent US20110207694A1", "about": "“MAMMALIAN HYPOTHALAMIC NUTRIENT MODULATION OF GLUCOSE METABOLISM” (priority 2005, published 2011)", "type_in_all_cases": "in vivo, rat", "key": {"high fat-fed rats [1]": {"test_system": "high fat-fed rats", "assay": "ICV glucose or lactate in high fat-fed rats: plasma triglycerides and VLDL secretion", "procedure": "High fat feeding. Male Sprague-Dawley rats were fed a highly palatable high fat diet for three days. These rats developed hyperinsulinemia and hepatic insulin resistance (Morgan et al., 2004). […] In a separate set of studies, lipoprotein secretion studies were performed at the beginning of the ICV infusions."}, "[2]": {"test_system": "phospho-ACC, ACC, FAS, MTP and ApoB", "assay": "Western blot of liver proteins after ICV glucose", "procedure": "Western blot analyses. Liver tissue (50-100 mg) was homogenized in a detergent-based lysis buffer (M-PER, Pierce) supplemented with protease and phosphatase inhibitors. The extracts were incubated on ice for 20 min and then centrifuged at 15,000×g to remove tissue debris; the supernatants were saved and frozen at −80 C until analysis. Fifty μg of protein were heat-denatured in SDS-PAGE sample buffer and resolved on denaturing (SDS) 10% polyacrylamide gels (SDS-PAGE). Fractionated proteins were electrophoretically transferred to nitrocellulose membranes by standard procedures. Membranes were immunoblotted with the appropriate primary antibodies and immune complexes were detected by enhanced chemiluminescence (ECL) (Western Lightning, Perkin Elmer Life Sciences) using horseradish peroxidase conjugated secondary antibodies. Bands were imaged on X-ray film and digitized for quantification using ImageQuant software (Molecular Dynamics). β-tubulin was used for loading normalization. Antibodies. Rabbit antibodies to acetyl Co-A carboxylase and phospho-acetyl Co-A carboxylase (Ser79) were from Cell Signaling Technology (Beverly, Mass.); fatty acid synthetase (FAS) and microsomal triglyceride transfer protein (MTP) antibodies were from BD Biosciences Pharmingen (San Jose, Calif.); cholesterol hydroxylase 7α (CYP7A1) and ApoB-100 antibodies were from Santa Cruz Biotechnology (Santa Cruz, Calif.); mouse monoclonal β-tubulin antibodies were obtained from Covance Research Products (Berkeley, Calif.)."}, "high fat-fed rats [3]": {"test_system": "high fat-fed rats", "assay": "Central glucose or lactate in regular chow vs 3-day high fat diet-fed animals: glucose production", "settings": "central administration", "text": "The latter is an excellent model for diet-induced insulin resistance."}, "rats": {"test_system": "rats", "assay": "Food intake after central (ICV) glucose or lactate", "settings": "central administration"}, "male Sprague-Dawley rats": {"test_system": "male Sprague-Dawley rats", "assay": "ICV infusion: plasma triglycerides and metabolites under basal and pancreatic clamp conditions", "text": "Animal preparation. We studied 10-week-old male Sprague-Dawley rats. Rats underwent stereotaxic surgery to indwell single catheters in the third cerebral ventricle {intracerebroventricular (ICV)(Obici et al., 2001) or bilateral catheters into the mediobasal hypothalamus (Lam et al., 2005c). One week later, we placed indwelling catheters in the internal jugular vein and carotid artery for sampling and infusion during the in vivo experiments (Obici et al., 2001). Recovery from surgery was monitored by measuring daily food intake and weight gain for 4-5 days after surgery.\nInfusion protocols. The in vivo infusion experiments lasted a total of 360 min, and the experiments were carried out in rats that had their food removed ˜5 h before the experiments. Thus, at the time of the experiment, the rats are in post-absorptive state since their stomach should be completely emptied by 5 h fasting. […] This ICV glucose protocol physiologically elevate hypothalamic glucose concentration by ˜70% as previously described (Lam et al., 2005b) and is similar to that induced by a doubling of the circulating glucose levels (Lam et al., 2005b). During the ICV infusions, we monitored the plasma metabolite levels under pre-infused (0 min), basal (180-240 min) and pancreatic clamp (300-360 min) conditions. […] A basal insulin-pancreatic clamp was performed in the final 2 h (240-360 min) of the study as previously described (Lam et al., 2005b). In brief, a continuous infusion of insulin (1 mU/kg.min) and somatostatin (3 μg/kg.min) was administered, and a variable infusion of a 25% glucose solution was started and periodically adjusted to clamp and maintain the plasma glucose concentration at ˜8 mM. […] To examine the time-dependent effects of ICY glucose on plasma triglycerides, ICY (5 μl/h) 2 mM D-glucose or mannitol was administrated for 210 min and plasma triglyceride levels were monitored at 0, 20, 60, 120, 180, 210 min. […] Plasma triglycerides were monitored under basal, pancreatic clamp and tyloxapol-treated conditions. At the end of the infusion experiments, rats were anesthetized and tissue samples were freeze-clamped in situ with aluminum tongs pre-cooled in liquid nitrogen. All tissue samples were stored at −80° C. for subsequent analysis.\nBiochemical analyses. Plasma glucose concentrations were measured by the glucose oxidase method (Glucose Analyzer II, Beckman Instruments, Inc., Fullerton, Calif.). […] FFA concentrations were determined by an enzyme assay in accordance with the manufacturer's specifications (Waco Pure Chemical Industries. Osaka. Japan). Plasma insulin concentrations (with rat and porcine insulin standards) were measured by radioimmunoassay (RIA). Plasma adiponectin concentrations were measured by RIA (Linco Inc., Austin, Tex., USA). Liver triglycerides were measured as described (Muse et al., 2004).\nCalculations. Statistical analysis was done by unpaired Student's t test or analysis of variance as appropriate. Data are presented as means±SEM. All values were collapsed into a single value for each animal prior to the calculation of mean. The time period 180-240 min was averaged for the basal and the time period 300-360 min was averaged for the clamp conditions."}, "mediobasal hypothalamus": {"test_system": "mediobasal hypothalamus", "assay": "Intrahypothalamic (IH) infusion of glucose or DCA with pancreatic basal insulin clamp", "settings": "IH administration", "text": "FIG. 3 is a diagram of experimental protocols (Panel (a)) and graphs of results of those experiments utilizing intrahypothalamic (IH) infusions of glucose.\nFIG. 4 is a schematic and graphs of experimental results showing the effect of dichloroacetate (DCA), an inhibitor of pyruvate dehydrogenase kinase, having the effect of activating pyruvate dehydrogenase (PDH). The schematic of Panel (a) illustrates the PDH activation effect of DCA in the context of glucose metabolism, the TCA cycle, and nervous system cells.\nWe have localized the effect of glucose on liver glucose production to the mediobasal hypothalamus. This was accomplished using bilateral intraparenchymal (rather than ICY) delivery of both glucose and the KATP blocker GLI."}, "[4]": {"settings": "central administration of glucose"}}, "data": [{"smiles": "O=C[C@H](O)[C@@H](O)[C@H](O)[C@H](O)CO", "note": "[glucose, D-glucose]", "values": [{"measurement": "rate of appearance of VLDL-triglycerides in plasma", "setting": "high fat-fed rats [1]; HF rats, tyloxapol", "value": "failed to decrease the rate of appearance of VLDL-triglycerides in plasma"}, {"measurement": "circulating levels of triglycerides", "setting": "high fat-fed rats [1]; high fat-fed rats", "value": "failed to decrease the circulating levels of triglycerides"}, {"measurement": "hepatic content of lipogenic enzymes acetyl-CoA carboxylase and fatty acid synthase", "setting": "[2]; ICV glucose", "value": "failed to alter the hepatic content of these lipogenic enzymes"}, {"measurement": "expression of MTP in the liver", "setting": "[2]; [4]", "value": "not affected"}, {"measurement": "hepatic ApoB48 levels", "setting": "[2]; [4]", "value": "not decreased"}, {"measurement": "glucose production", "setting": "high fat-fed rats [3]; 3-day high fat diet-fed animals", "value": "severely impaired"}, {"measurement": "glucose production", "setting": "high fat-fed rats [3]; regular chow animals", "value": "lowered glucose production"}, {"measurement": "food intake overnight", "setting": "rats", "value": "inhibits food intake overnight"}, {"measurement": "decrease in plasma triglyceride levels", "setting": "male Sprague-Dawley rats; ICV glucose, within 2 h, fraction", "value": "⅓"}, {"measurement": "maximal hypolipidemic effect (decrease in plasma triglycerides)", "setting": "male Sprague-Dawley rats; ICV glucose, within 3 h", "value": "~75", "unit": "%"}, {"measurement": "plasma free fatty acids levels", "setting": "male Sprague-Dawley rats; ICV infusion", "value": "did not modify plasma fatty acids levels"}, {"measurement": "plasma triglyceride levels", "setting": "male Sprague-Dawley rats; ICV infusion (glucose 2 mM, L-lactate 5 mM)", "value": "markedly decreased the circulating levels of triglycerides"}, {"measurement": "circulating glucose levels", "setting": "mediobasal hypothalamus", "value": "lowered circulating glucose levels"}, {"measurement": "glucose production", "setting": "mediobasal hypothalamus; clamp", "value": "suppressed liver glucose production"}, {"measurement": "glucose utilization", "setting": "mediobasal hypothalamus; clamp", "value": "unchanged"}, {"measurement": "exogenous glucose infusion rate to maintain euglycemia", "setting": "mediobasal hypothalamus; pancreatic basal insulin clamps", "value": "increased exogenous glucose infusion rate"}]}]}
